Calls of active or inactive are those of the source. No cut-off for these calls is given here.
Experiments:
SKM-1 [1] = assay: Antiproliferative activity against human SKM1 cells assessed as reduction in cell viability after 5 days by CellTiter-Glo assay; assay type: functional, cell-based; conditions: SKM-1, 120 h
NCI-H1299 = assay: Antiproliferative activity against human H1299 cells assessed as reduction in cell viability after 5 days by CellTiter-Glo assay; assay type: functional, cell-based; conditions: NCI-H1299, 120 h
[2] = Unbound hepatic clearance in human liver microsomes; assay type: ADME, Microsome
[3] = Unbound hepatic clearance in mouse liver microsomes; assay type: ADME, Microsome
[4] = Unbound hepatic clearance in rat liver microsomes; assay type: ADME, Microsome
[5] = Permeability in dog MDCK cells by PAMPA; assay type: ADME, cell-based, Canis lupus familiaris; conditions: read-out: permeability
[6] = Oral bioavailability in mouse at 1 mg/kg; assay type: ADME, organism-based; conditions: in vivo
[7] = AUC in dog at 0.3 mg/kg, po; assay type: ADME, organism-based, Canis lupus familiaris; conditions: in vivo
[8] = AUC in mouse at 1 mg/kg, po; assay type: ADME, organism-based; conditions: in vivo
[9] = AUC in rat at 1 mg/kg, po; assay type: ADME, organism-based; conditions: in vivo
[10] = Half life in rat at 1 mg/kg, po; assay type: ADME, organism-based; conditions: in vivo
[11] = Half life in dog at 0.3 mg/kg, po; assay type: ADME, organism-based, Canis lupus familiaris; conditions: in vivo
[12] = Half life in mouse at 1 mg/kg, po; assay type: ADME, organism-based; conditions: in vivo
[13] = Clearance in dog plasma at 0.1 mg/kg, iv; assay type: ADME, organism-based, Canis lupus familiaris
[14] = Clearance in mouse plasma at 1 mg/kg, iv; assay type: ADME, organism-based
[15] = Clearance in rat plasma at 1 mg/kg, iv; assay type: ADME, organism-based
[16] = AUC in dog at 0.1 mg/kg, iv; assay type: ADME, organism-based, Canis lupus familiaris; conditions: in vivo
[17] = AUC in mouse at 1 mg/kg, iv; assay type: ADME, organism-based; conditions: in vivo
[18] = AUC in rat at 1 mg/kg, iv; assay type: ADME, organism-based; conditions: in vivo
[19] = Volume of distribution at steady state in rat at 1 mg/kg, iv; assay type: ADME, organism-based; conditions: in vivo, read-out: Vdss
[20] = Volume of distribution at steady state in dog at 0.1 mg/kg, iv; assay type: ADME, organism-based, Canis lupus familiaris; conditions: in vivo, read-out: Vdss
[21] = Volume of distribution at steady state in mouse at 1 mg/kg, iv; assay type: ADME, organism-based; conditions: in vivo, read-out: Vdss
[22] = AUC in monkey at 0.3 mg/kg, po; assay type: ADME, organism-based, Macaca mulatta; conditions: rhesus monkey, in vivo
[23] = Half life in dog at 0.1 mg/kg, iv; assay type: ADME, organism-based, Canis lupus familiaris; conditions: in vivo
[24] = Half life in mouse at 1 mg/kg, iv; assay type: ADME, organism-based; conditions: in vivo
[25] = Half life in rat at 1 mg/kg, iv; assay type: ADME, organism-based; conditions: in vivo
[26] = Oral bioavailability in rat at 1 mg/kg; assay type: ADME, organism-based; conditions: in vivo
[27] = Oral bioavailability in dog at 0.3 mg/kg; assay type: ADME, organism-based, Canis lupus familiaris; conditions: in vivo
[28] = Oral bioavailability in monkey at 0.3 mg/kg; assay type: ADME, organism-based, Macaca mulatta; conditions: rhesus monkey, in vivo
[29] = molecular target: T1, Bromodomain testis-specific protein (Homo sapiens, UniProt Q58F21); assay: Inhibition of BRDT BD1 (unknown origin) after 1 hr by TR-FRET assay
[30] = molecular target: T1, Bromodomain testis-specific protein; assay: Inhibition of BRDT BD2 (unknown origin) after 1 hr by TR-FRET assay
[31] = Half life in monkey at 0.3 mg/kg, iv; assay type: ADME, organism-based, Macaca mulatta; conditions: rhesus monkey, in vivo
[32] = Volume of drug distribution in monkey at 0.3 mg/kg, iv; assay type: ADME, organism-based, Macaca mulatta; conditions: rhesus monkey, in vivo, read-out: Vdss
[33] = AUC in monkey at 0.3 mg/kg, iv; assay type: ADME, organism-based, Macaca mulatta; conditions: rhesus monkey, in vivo
[34] = Clearance in monkey plasma at 0.3 mg/kg, iv; assay type: ADME, organism-based, Macaca mulatta; conditions: rhesus monkey
[35] = Tmax in mouse at 1 mg/kg, po; assay type: ADME, organism-based; conditions: in vivo
[36] = Tmax in rat at 1 mg/kg, po; assay type: ADME, organism-based; conditions: in vivo
[37] = Tmax in dog at 1 mg/kg, po; assay type: ADME, organism-based, Canis lupus familiaris; conditions: in vivo
[38] = Tmax in monkey at 1 mg/kg, po; assay type: ADME, organism-based, Macaca mulatta; conditions: rhesus monkey, in vivo
[39] = Cmax in mouse at 1 mg/kg, po; assay type: ADME, organism-based; parameters: dose 1 mg/kg, route oral; conditions: in vivo
[40] = Cmax in rat at 1 mg/kg, po; assay type: ADME, organism-based; parameters: dose 1 mg/kg, route oral; conditions: in vivo
[41] = Cmax in dog at 1 mg/kg, po; assay type: ADME, organism-based, Canis lupus familiaris; parameters: dose 1 mg/kg, route oral; conditions: in vivo
[42] = Cmax in monkey at 1 mg/kg, po; assay type: ADME, organism-based, Macaca mulatta; parameters: dose 1 mg/kg, route oral; conditions: rhesus monkey, in vivo
[43] = Fraction of drug absorbed in mouse portal vein in mouse at 1 mg/kg, po; assay type: ADME, organism-based; conditions: in vivo
[44] = Fraction of drug absorbed in mouse portal vein in rat at 1 mg/kg, po; assay type: ADME, organism-based; conditions: in vivo
[45] = Fraction of drug absorbed in mouse portal vein in dog at 1 mg/kg, po; assay type: ADME, organism-based, Canis lupus familiaris; conditions: in vivo
[46] = Fraction of drug absorbed in mouse portal vein in monkey at 1 mg/kg, po; assay type: ADME, organism-based, Macaca mulatta; conditions: rhesus monkey, in vivo
[47] = Half life in monkey at 0.3 mg/kg, po; assay type: ADME, organism-based, Macaca mulatta; conditions: rhesus monkey, in vivo
SKM-1 [48] = assay: Antitumor activity against human SKM1 cells xenografted in SCID mouse assessed as tumor growth inhibition at 60 mg/kg, po bid by caliper method; assay type: functional, organism-based
[49] = molecular target: T2, Bromodomain-containing protein 4 (Homo sapiens, UniProt O60885); assay: biochemical; assay type: cell-based
Description: Inhibition of human N-terminal His6 tagged BRD4 BD1 (57 to 168) residues expressed in Escherichia coli BL21(DE3) cells after 1 hr by TR-FRET assay

[50] = molecular target: T2, Bromodomain-containing protein 4; assay: Inhibition of human N-terminal His6 tagged BRD4 BD2 (352 to 457) residues expressed in Escherichia coli BL21(DE3) cells after 1 hr by TR-FRET assay
[51] = AUC in monkey at 0.1 mg/kg, iv; assay type: ADME, organism-based, Macaca mulatta; conditions: rhesus monkey, in vivo
[52] = Volume of distribution at steady state in monkey at 0.1 mg/kg, iv; assay type: ADME, organism-based, Macaca mulatta; conditions: rhesus monkey, in vivo, read-out: Vdss
[53] = Clearance in monkey plasma at 0.1 mg/kg, iv; assay type: ADME, organism-based, Macaca mulatta; conditions: rhesus monkey
[54] = Half life in monkey at 0.1 mg/kg, iv; assay type: ADME, organism-based, Macaca mulatta; conditions: rhesus monkey, in vivo
[55] = Unbound hepatic clearance in monkey liver microsomes; assay type: ADME, Macaca mulatta, Microsome; conditions: rhesus monkey
SKM-1 [56] = assay: Antitumor activity against human SKM1 cells xenografted in SCID mouse assessed as tumor growth inhibition at 1 mg/kg, po qd for 21 days by caliper method; assay type: functional, organism-based

CCNC(=O)c1cc2c(-c3cc(C(C)(C)O)ccc3Oc3c(C)cc(F)cc3C)cn(C)c(=O)c2[nH]1 [ABBV-744]
IC50 (SKM-1 [1]): 6.7 nM | IC50 (NCI-H1299): 1600 nM | CL free [2]: 143 mL/min/kg | CL free [3]: 750 mL/min/kg | CL free [4]: 200 mL/min/kg | Papp [5]: 2 ×10⁻⁶ cm/s | bioavailability [6]: 58% | AUC [7]: 1050 ng·h/mL | AUC [8]: 2350 ng·h/mL | AUC [9]: 120 ng·h/mL | half-life [10]: 3.4 h | half-life [11]: 4.2 h | half-life [12]: 2.8 h | clearance [13]: 4 mL/min/kg | clearance [14]: 4.83 mL/min/kg | clearance [15]: 11.2 mL/min/kg | AUC [16]: 460 ng·h/mL | AUC [17]: 3800 ng·h/mL | AUC [18]: 500 ng·h/mL | Vd [19]: 5.3 L/kg | Vd [20]: 1.5 L/kg | Vd [21]: 1.3 L/kg | AUC [22]: 14 ng·h/mL | half-life [23]: 4.4 h | half-life [24]: 3 h | half-life [25]: 2.9 h | bioavailability [26]: 24% | bioavailability [27]: 77% | bioavailability [28]: 7% | Ki [29]: 917 nM | Ki [30]: 1 nM | half-life [31]: 2 h | Vd [32]: 3.4 L/kg | AUC [33]: 200 ng·h/mL | clearance [34]: 25.7 mL/min/kg | Tmax [35]: 6 min | Tmax [36]: 7.5 min | Tmax [37]: 2.8 h | Tmax [38]: 1.5 h | Cmax [39]: 210 ng/mL | Cmax [40]: 12 ng/mL | Cmax [41]: 116 ng/mL | Cmax [42]: 5 ng/mL | FaFg [43]: 81 | FaFg [44]: 52 | FaFg [45]: 87 | FaFg [46]: 19 | half-life [47]: 2.5 h

CCS(=O)(=O)Nc1ccc(Oc2ccc(F)cc2F)c(-c2cn(C)c(=O)c3[nH]ccc23)c1
inhibition (SKM-1 [48]): Active

CCNC(=O)c1cc2c(-c3cc(C4(O)CCC4)ccc3Oc3c(C)cc(F)cc3C)cn(C)c(=O)c2[nH]1
Ki [49]: 220 nM | Ki [50]: 1.5 nM | IC50 (SKM-1 [1]): 26 nM | IC50 (NCI-H1299): 2200 nM | CL free [2]: 5830 mL/min/kg | CL free [3]: 15700 mL/min/kg | CL free [4]: 6330 mL/min/kg | Papp [5]: 1.56 ×10⁻⁶ cm/s

CCNC(=O)c1cc2c(-c3cc(S(=O)(=O)CC)ccc3Oc3c(C)cccc3C)cn(C)c(=O)c2[nH]1
Ki [49]: 120 nM | Ki [50]: 1.1 nM | IC50 (SKM-1 [1]): 5.2 nM | IC50 (NCI-H1299): 450 nM | CL free [2]: 90 mL/min/kg | CL free [3]: 700 mL/min/kg | CL free [4]: 1070 mL/min/kg | Papp [5]: 7.68 ×10⁻⁶ cm/s | bioavailability [6]: 53% | AUC [7]: 644 ng·h/mL | AUC [8]: 760 ng·h/mL | AUC [9]: 27 ng·h/mL | half-life [10]: 1 h | half-life [11]: 0.3 h | half-life [12]: 1 h | clearance [13]: 5.67 mL/min/kg | clearance [14]: 11.5 mL/min/kg | clearance [15]: 45.2 mL/min/kg | AUC [16]: 291 ng·h/mL | AUC [51]: 89 ng·h/mL | AUC [17]: 1440 ng·h/mL | AUC [18]: 384 ng·h/mL | Vd [52]: 2.3 L/kg | Vd [19]: 3.5 L/kg | Vd [20]: 1.7 L/kg | Vd [21]: 0.8 L/kg | clearance [53]: 20 mL/min/kg | half-life [54]: 1.5 h | half-life [23]: 3.7 h | half-life [24]: 1 h | half-life [25]: 1.4 h | CL free [55]: 533 mL/min/kg | bioavailability [26]: 7% | bioavailability [27]: 74% | bioavailability [28]: 0% | inhibition (SKM-1 [56]): Active

CCNC(=O)c1cc2c(-c3cc(S(=O)(=O)CC)ccc3Oc3c(C)cc(Cl)cc3C)cn(C)c(=O)c2[nH]1
Ki [49]: 82 nM | Ki [50]: 0.8 nM | IC50 (SKM-1 [1]): 110 nM | IC50 (NCI-H1299): 700 nM | CL free [2]: 783 mL/min/kg | CL free [3]: 2000 mL/min/kg | CL free [4]: 1580 mL/min/kg | Papp [5]: 1.46 ×10⁻⁶ cm/s

CCNC(=O)c1cc2c(-c3cc(S(=O)(=O)CC)ccc3Oc3c(C)cccc3C(F)(F)F)cn(C)c(=O)c2[nH]1
Ki [49]: 470 nM | Ki [50]: 5.8 nM | IC50 (SKM-1 [1]): 28 nM | IC50 (NCI-H1299): 1200 nM | CL free [2]: 75 mL/min/kg | CL free [3]: 900 mL/min/kg | CL free [4]: 200 mL/min/kg | Papp [5]: 15.2 ×10⁻⁶ cm/s

— ChEMBL document CHEMBL4342522 (J Med Chem, 2020)
